Measurements as given in US20200230207A1, “TREATMENT OF BONE GROWTH DISORDERS” (FONDAZIONE TELETHON, priority 2015, published 2020).

Columns and labels:
[1] = tested on: MPS VII primary chondrocytes; assay: mTORC1 signaling and autophagy flux in MPS VII primary chondrocytes treated with Torin1; assay type: cell-based, mouse; details: 1 μM, 24 hours
Description: FIG. 28: Pharmacological inhibition of mTORC1 restores autophagy flux in MPS VII chondrocytes. α-b, biochemical analysis in primary chondrocytes treated with Torin1 (1 μM) for 24 hours (a) and quantification (b). Data shown in (b) are mean+SE of 3 independent experiments.
Primary chondrocytes were isolated from the rib cage of P5 mice (wild-type and MPS VII) and were plated at the density of 10^5 cells/cm^2. After 3 days in culture cells were splitted in 12 wells chamber, synchronized with AA, treated with Torin1 (1 μM) for 24 hours and harvested for biochemical analysis.

[2] = tested on: GusbKO RCS cells; assay: UVRAG phosphorylation and AV-Lys fusion in GusbKO RCS chondrocytes; assay type: cell-based, rat; details: 1 μM, 6h
Description: FIG. 32: mTORC1 inhibits AV-Lys fusion in MPS via UVRAG. A, immunoprecipitation assay testing the increase of UVRAG phosphorylation in RCS GusbKO relative to RCS WT cells. The increase is blunted in the presence of Torin-1 (1 μM; 6h). B, immunoprecipitation assay testing physical interactions between endogenous UVRAG, Rubicon and Beclin-1 in RCS WT and GusbKO RCS chondrocytes after 6h amino acid treatment. Cell lysates were immunoprecipitated with an UVRAG-specific antibody followed by probing with antibodies specific for P-UVRAG (S498), UVRAG, Rubicon or Beclin-1. C, myc-UVRAG was transiently expressed in Gusb^−/− primary chondrocytes. Myc expression, LC3 and P62 were monitored by fluorescence microscope two days post-transfection and after 24h amino acid treatment. Scale bar, 10 μm. Quantitative analysis of P62 and LC3 puncta. Mean value is shown as a horizontal bar. (Student's t-test, *** p<0.0005, n≥20). […] Blot is representative of 3 independent experiments. E, quantification of protein amount normalized to β-actin and relative to RCS WT (ANOVA, P62 P<0.0001, Tukey's post-hoc test, ***p<0.0005, **p<0.005, *p<0.05). […] Scale bar, 10 μm. Quantification of Lamp-1-LC3 co-localization is shown as mean (±s.e.m.) of Mander's Coefficients resulting from three independent experiments (Student's t-test, *p<0.05).

[3] = tested on: young rats; details: cited from earlier work
[4] = tested on: kidney transplanted children; details: small series of kidney transplanted children; cited from earlier work

Compound	LC3 II and p62 levels [1]	autophagy defects [1]	phosphorylation of mTORC1 substrates [1]	UVRAG serine 497 (S497) phosphorylation [2]	longitudinal growth ([3]; rats)	angiogenesis, proliferation and hypertrophy of growth cartilage chondrocytes ([3]; young rats)	growth rate compared with control group not treated [4]
CCC(=O)N1CCN(c2ccc(-n3c(=O)ccc4cnc5ccc(-c6cnc7ccccc7c6)cc5c43)cc2C(F)(F)F)CC1 [Torin1]	normalization	rescues	completely suppresses	blunted			
CO[C@H]1C[C@@H]2CC[C@@H](C)[C@@](O)(O2)C(=O)C(=O)N2CCCC[C@H]2C(=O)O[C@H]([C@H](C)C[C@@H]2CC[C@@H](O)[C@H](OC)C2)CC(=O)[C@H](C)/C=C(\C)[C@@H](O)[C@@H](OC)C(=O)[C@H](C)C[C@H](C)/C=C/C=C/C=C/1C [rapamycin]					impairs longitudinal growth	disrupts angiogenesis and decreases proliferation and hypertrophy of growth cartilage chondrocytes	lower growth rate
